Test results taken from ChEMBL document CHEMBL1201862, “PubChem BioAssay data set” (2004).
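In this assay, cells in 96-well plates receive the compound at five concentrations for 48 hours. Endpoints are linearly interpolated between the surrounding concentrations. The concentration for 50% growth inhibition is given as GI50.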 Calls of active or inactive are those of the source. No stated cut-off is given here; in the data, active = GI50 up to about 1.1 µM and inactive = higher.

How the values were obtained:
Assay in all cases: growth of human tumour cells (NCI), 48 h
EKVX = system: EKVX
U-251 = system: U-251
MDA-MB-231 = system: MDA-MB-231
MCF7 = system: MCF7
MOLT-4 = system: MOLT-4
M14 = system: M14
NCI-H522 = system: NCI-H522
SF-539 = system: SF-539
OVCAR-5 = system: OVCAR-5
MDA-MB-435 = system: MDA-MB-435
UACC-257 = system: UACC-257
CCRF-CEM = system: CCRF-CEM
SF-268 = system: SF-268
UACC-62 = system: UACC-62
HCC 2998 = system: HCC 2998
SN12C = system: SN12C
DU-145 = system: DU-145
T47D = system: T47D
HCT-116 = system: HCT-116
A498 = system: A498

| Structure (SMILES) | GI50 (EKVX) | GI50 (U-251) | GI50 (MDA-MB-231) | GI50 (MCF7) | GI50 (MOLT-4) | GI50 (M14) | GI50 (NCI-H522) | GI50 (SF-539) | GI50 (OVCAR-5) | GI50 (MDA-MB-435) | GI50 (UACC-257) | GI50 (CCRF-CEM) | GI50 (SF-268) | GI50 (UACC-62) | GI50 (HCC 2998) | GI50 (SN12C) | GI50 (DU-145) | GI50 (T47D) | GI50 (HCT-116) | GI50 (A498) |
| --- | --- | --- | --- | --- | --- | --- | --- | --- | --- | --- | --- | --- | --- | --- | --- | --- | --- | --- | --- | --- |
| CN1CN(c2ccccc2)C2(CCN(Cc3csc4ccccc34)CC2)C1=O | 7.53 µM (inactive) | 8.55 µM (inactive) | > 10 µM (inactive) | 11.6 µM (inactive) | 4.32 µM (inactive) | 13.7 µM (inactive) | 9.23 µM (inactive) | 15.1 µM (inactive) | 1.63 µM (inactive) | 14.3 µM (inactive) | 13.2 µM (inactive) | 17.5 µM (inactive) | 22.3 µM (inactive) | 22.8 µM (inactive) | 13.4 µM (inactive) | 13.5 µM (inactive) | 49.2 µM (inactive) | 5.11 µM (inactive) | 5.35 µM (inactive) |  |
| Nc1nc(O)c2c(n1)NCN(CCCN1CCOCC1)C2 | > 100 µM (inactive) | > 100 µM (inactive) | > 100 µM (inactive) | > 100 µM (inactive) | 46.7 µM (inactive) | > 100 µM (inactive) | > 100 µM (inactive) | > 100 µM (inactive) | > 100 µM (inactive) | > 100 µM (inactive) | > 100 µM (inactive) |  | > 100 µM (inactive) | > 100 µM (inactive) | > 100 µM (inactive) | > 100 µM (inactive) | > 100 µM (inactive) | > 100 µM (inactive) | > 100 µM (inactive) | > 100 µM (inactive) |
| O=C(CCc1ccc(O)c(O)c1)NCCc1cc(O)cc(O)c1 | > 100 µM (inactive) | > 100 µM (inactive) | > 100 µM (inactive) | 66.8 µM (inactive) | > 100 µM (inactive) | > 100 µM (inactive) | 71 µM (inactive) | > 100 µM (inactive) | > 100 µM (inactive) | 24.8 µM (inactive) | > 100 µM (inactive) | 29.2 µM (inactive) | > 100 µM (inactive) | > 100 µM (inactive) | > 100 µM (inactive) | > 100 µM (inactive) | > 100 µM (inactive) | > 100 µM (inactive) | > 100 µM (inactive) | > 100 µM (inactive) |
| O=C1/C(=C/c2ccccc2)CN(C(=O)/C=C/c2ccccc2)C/C1=C\c1ccccc1 | 24.5 µM (inactive) | 3.59 µM (inactive) | 3.18 µM (inactive) | 1.75 µM (inactive) | 3.53 µM (inactive) | 3.63 µM (inactive) | 8.99 µM (inactive) | 9.75 µM (inactive) | 17.6 µM (inactive) | 1.93 µM (inactive) | 12.7 µM (inactive) | 2.85 µM (inactive) | 11.2 µM (inactive) | 5.69 µM (inactive) | 3.55 µM (inactive) | 5.43 µM (inactive) | 18.6 µM (inactive) | 4.43 µM (inactive) | 0.764 µM (active) | 33.3 µM (inactive) |
| CCOC(=O)C(CO)c1nc2c([nH]c1=O)c(=O)n(C)c(=O)n2C (stereo not drawn) | > 100 µM (inactive) | > 100 µM (inactive) | > 100 µM (inactive) | > 100 µM (inactive) |  | > 100 µM (inactive) | > 100 µM (inactive) | > 100 µM (inactive) | > 100 µM (inactive) | > 100 µM (inactive) | > 100 µM (inactive) | > 100 µM (inactive) | > 100 µM (inactive) | > 100 µM (inactive) | > 100 µM (inactive) | > 100 µM (inactive) | > 100 µM (inactive) | 13.7 µM (inactive) | > 100 µM (inactive) | 0.608 µM (active) |
| CC(=O)OC1CCN(C(=O)c2ccccc2)CC1CC1(c2cc3ccccc3[nH]2)OCCO1 (stereo not drawn) | 83 µM (inactive) | 77.4 µM (inactive) | > 100 µM (inactive) | > 100 µM (inactive) | 32.2 µM (inactive) | 83.8 µM (inactive) | 78.9 µM (inactive) |  | > 100 µM (inactive) | 42.8 µM (inactive) | 50 µM (inactive) | 48.3 µM (inactive) |  | 36.6 µM (inactive) | 47.3 µM (inactive) | 84.3 µM (inactive) | > 100 µM (inactive) | 34 µM (inactive) | 72.6 µM (inactive) | 26.7 µM (inactive) |
| COC(=O)Nc1nc2cc(C(=O)c3ccc[nH]3)ccc2[nH]1 |  | 0.721 µM (active) | 20.6 µM (inactive) | 0.341 µM (active) | 0.575 µM (active) | 0.571 µM (active) | 0.402 µM (active) | 2.4 µM (inactive) | > 100 µM (inactive) | 0.117 µM (active) |  | 0.577 µM (active) | 2.04 µM (inactive) | 0.425 µM (active) | 2.55 µM (inactive) | 1.15 µM (inactive) | 1.82 µM (inactive) | 0.959 µM (active) | 0.267 µM (active) | 3.04 µM (inactive) |
